This note sets out measurements from ChEMBL document CHEMBL1201862, “PubChem BioAssay data set” (2004).

Structures are written as SMILES.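 Following 48 hours of exposure in 96-well plates, responses at five concentrations were used to interpolate endpoints linearly. Abbreviation: GI50, concentration required for 50% inhibition of growth.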 Active and inactive are the calls of the source. Rule as the data show it: active = GI50 up to about 1.1 µM and inactive = higher.

Holding throughout (test): inhibition of tumour cell growth, NCI panel, 48 h
For assay [1], the system named is RXF 393.
Assay [2] relates to NCI-H460.
Assay [3] relates to NCI-H226.
The subject of assay [4] is SNB-75.
The test system of assay [5] is BT-549.
The test system of assay [6] is MOLT-4.
For assay [7], the system named is IGROV-1.
Assay [8] deals with HT-29.
Assay [9] relates to UACC-62.
For assay [10], the system named is NCI/ADR-RES.
Assay [11] deals with HOP-62.
Assay [12] concerns U-251.
Assay [13] relates to A498.
For assay [14], the system named is KM12.
Assay [15] has as its system RPMI-8226.
For assay [16], the system named is ACHN.
Assay [17] concerns SR.
Assay [18] deals with 786-0.
Assay [19] deals with NCI-H23.
The test system of assay [20] is SK-MEL-2.

On to `O=C(O)c1ccc(SSc2ccc(C(=O)O)cn2)nc1`, for which the GI50 is > 100 µM (inactive) in assay [1]; > 100 µM (inactive) in assay [2]; 72.3 µM (inactive) in assay [3]; > 100 µM (inactive) in [4]; > 100 µM (inactive) in assay [5]; > 100 µM (inactive) in assay [6]. The GI50 in assay [7], in assay [8], in assay [9], in assay [10], in assay [11] and in [12] was > 100 µM (inactive) throughout. The GI50 in assay [13], in assay [14], in assay [15], in assay [16], in assay [17] and in assay [18] was > 100 µM (inactive) throughout. The GI50 in assay [19] and in assay [20] was > 100 µM (inactive) each time.

Consider `COc1cccc([C@H]2CC(=O)c3cc4c(cc3N2)OCO4)c1`, for which the GI50 was 0.171 µM (active) in assay [1]; 0.411 µM (active) in assay [2]; 0.263 µM (active) in assay [3]; > 100 µM (inactive) in assay [4]; 8.59 µM (inactive) in assay [5]; 0.938 µM (active) in assay [6]. The GI50 in assay [7] is 0.622 µM (active); in [8], 0.194 µM (active); in assay [9] it was 0.406 µM (active); in assay [10] it was 0.296 µM (active); in [11] it was 0.568 µM (active); in assay [12], 0.393 µM (active). The GI50 in assay [13] is 0.75 µM (active); in [14], 0.317 µM (active); in assay [15], 0.579 µM (active); in [16], 0.847 µM (active); in assay [17], 0.318 µM (active); in assay [18] it was 0.418 µM (active). In addition, the GI50 is 0.451 µM (active) in assay [19] and 0.578 µM (active) in assay [20].

On to `CC(C)Oc1c(N(Cc2ccccc2)c2ccccc2C2SCCCS2)c(=O)c1=O`, for which the GI50 in [1] is 4.88 µM (inactive); in assay [2], 3.69 µM (inactive); in assay [3], 6.05 µM (inactive); in [4], 2.51 µM (inactive); in assay [5], 6.38 µM (inactive); in assay [6], 3.63 µM (inactive). Further, the GI50 in [7] is 3.32 µM (inactive); in assay [8] it was 2.52 µM (inactive); in assay [9] it was 4.89 µM (inactive); in assay [10] it was 1.75 µM (inactive); in [11], 3.96 µM (inactive); in assay [12], 4.4 µM (inactive). In addition, the GI50 in assay [13] is 6.9 µM (inactive); in assay [14], 3.21 µM (inactive); in [15] it was 4.24 µM (inactive); in assay [16], 5.81 µM (inactive); in assay [17] it was 2.79 µM (inactive); in assay [18], 4.41 µM (inactive). For the same compound, the GI50 in assay [19] is 3.97 µM (inactive); in [20], 3.32 µM (inactive).

Take `ClC(Cl)(Cl)C1=N[C@H]2[C@H](Br)[C@@H]3O[C@@H](c4ccccc4)[C@H](c4ccccc4)O[C@@H]3[C@H]2O1`: the GI50 is 20.5 µM (inactive) in [1]; 16 µM (inactive) in assay [2]; 19.8 µM (inactive) in [3]; 20.9 µM (inactive) in assay [4]; 24.9 µM (inactive) in assay [5]; 18.2 µM (inactive) in assay [6]. The GI50 in [7] was 15.3 µM (inactive); in [8] it was 20.5 µM (inactive); in assay [9], 16.3 µM (inactive); in assay [10] it was 25.7 µM (inactive); in assay [11], 18.6 µM (inactive); in assay [12], 17.1 µM (inactive). Besides, the GI50 in assay [13] was 17.2 µM (inactive); in [14], 20.1 µM (inactive); in assay [15] it was 16.2 µM (inactive); in assay [16], 17.3 µM (inactive); in assay [17], 21.1 µM (inactive); in assay [18], 21.4 µM (inactive). Further, the GI50 is 21 µM (inactive) in [19] and 16.2 µM (inactive) in [20].

In the case of `CC(=O)OC1COC(n2c(-c3ccc(Cl)cc3)cc(-c3ccccc3)c(C#N)c2=S)C(OC(C)=O)C1OC(C)=O` (stereo not given), the GI50 in assay [1] was 12.9 µM (inactive); in assay [2], 19.1 µM (inactive); in [3], 16.3 µM (inactive); in assay [4] it was 15.7 µM (inactive); in assay [5] it was 2.06 µM (inactive); in assay [6], 50.1 µM (inactive). Further, the GI50 in assay [7] is 18.2 µM (inactive); in [8], 26.2 µM (inactive); in assay [9], 19.1 µM (inactive); in [10], 14.1 µM (inactive); in assay [11], 9.23 µM (inactive); in [12], 3.78 µM (inactive). Besides, the GI50 in assay [13] is 17.4 µM (inactive); in assay [14], 14.7 µM (inactive); in assay [15], 29.9 µM (inactive); in assay [16], 17.5 µM (inactive); in [17], 29.2 µM (inactive); in [18], 12.5 µM (inactive). In addition, the values for the GI50 in assay [19] and in assay [20] were 12.2 µM (inactive) and 12 µM (inactive), respectively.

For `NC(=O)CNC(=O)[C@@H]1C[C@@H](OCCC(=O)O)CN1C(=O)OCc1ccccc1`, the GI50 in [1], in assay [2], in [3], in assay [4], in [5] and in assay [6] was > 100 µM (inactive) in each case. Besides, the GI50 in assay [7], in assay [8], in [9], in assay [10], in [11] and in [12] was > 100 µM (inactive) throughout. Also, the GI50 in [13], in assay [14], in [15], in assay [16], in assay [17] and in [18] was > 100 µM (inactive) each time. Besides, the GI50 in [19] and in [20] was > 100 µM (inactive) in each case.

Consider `COC(=O)C(Cc1ccc2c(c1)CCCC2)Cc1cc2c(cc1C(O)OC)CCC2` (stereo not given), for which the GI50 in assay [1] was 24.3 µM (inactive); in assay [2] it was 35.8 µM (inactive); in assay [3], > 100 µM (inactive); in assay [4], > 100 µM (inactive); in [5], > 100 µM (inactive); in assay [6], 58.9 µM (inactive). Also, the GI50 is > 100 µM (inactive) in assay [7]; 27.7 µM (inactive) in assay [8]; > 100 µM (inactive) in assay [9]; 32.8 µM (inactive) in assay [10]; > 100 µM (inactive) in assay [11]; 49.4 µM (inactive) in [12]. Further, the GI50 was > 100 µM (inactive) in assay [13]; 44.7 µM (inactive) in [14]; 27.9 µM (inactive) in assay [15]; 67.1 µM (inactive) in assay [16]; 38.5 µM (inactive) in assay [17]; 33.3 µM (inactive) in assay [18]. Besides, the GI50 in assay [19] was 73.5 µM (inactive); in assay [20] it was > 100 µM (inactive).

As to `COC(=O)[C@H](Cc1ccccc1)NC(=O)c1ccc(CNC(=O)/C=C/c2csc(-c3ccccc3)n2)cc1`, the GI50 in assay [1] was 8.02 µM (inactive); in [2] it was 11.8 µM (inactive); in assay [3] it was 46 µM (inactive); in [4] it was 11 µM (inactive); in [5] it was 29.9 µM (inactive); in assay [6], 1.75 µM (inactive). The GI50 was 3.46 µM (inactive) in assay [7]; 7.38 µM (inactive) in assay [8]; 14.6 µM (inactive) in assay [9]; 21.2 µM (inactive) in [10]; 15.3 µM (inactive) in assay [11]; 8.11 µM (inactive) in assay [12]. Further, the GI50 is 16.1 µM (inactive) in [13]; 7.87 µM (inactive) in assay [14]; 7.74 µM (inactive) in [15]; 8.28 µM (inactive) in assay [16]; 1.11 µM (active) in assay [17]; 4.88 µM (inactive) in [18]. The GI50 in [19] is 13.8 µM (inactive); in assay [20] it was 2.81 µM (inactive).

`N#C[BH2-][n+]1ccc(C(=O)NNCC(F)(F)F)cc1`: the GI50 in assay [1], in [2], in [3], in assay [4], in assay [5] and in assay [6] was > 100 µM (inactive) in each case. The GI50 in assay [7], in [8], in assay [9], in assay [10], in assay [11] and in assay [12] was > 100 µM (inactive) each time. The GI50 in assay [13], in assay [14], in assay [15], in [16], in assay [17] and in assay [18] was > 100 µM (inactive) each time. In addition, the GI50 in [19] and in assay [20] was > 100 µM (inactive) throughout.

`C=C(C)[C@@H]1CC[C@]2(C(=O)OC3OC(COC4OC(CO)C(OC5OC(C)C(O)C(O)C5O)C(O)C4O)C(O)C(O)C3O)CC[C@]3(C)[C@H](CC[C@@H]4[C@@]5(C)CC[C@H](O)[C@@](C)(CO)[C@@H]5CC[C@]43C)[C@@H]12` (stereo not given in full): the GI50 in assay [1] was 5.06 µM (inactive); in [2] it was 1.37 µM (inactive); in assay [3] it was 3.16 µM (inactive); in assay [4], 4.39 µM (inactive); in [5], 3.06 µM (inactive); in [6], 0.39 µM (active). Also, the GI50 in assay [7] was 2.74 µM (inactive); in assay [8], 3.05 µM (inactive); in assay [9] it was 1.99 µM (inactive); in assay [10], 2.91 µM (inactive); in assay [11], 3.61 µM (inactive); in assay [12], 1.64 µM (inactive). For the same compound, the GI50 in assay [13] is 2.48 µM (inactive); in [14], 0.625 µM (active); in [15], 0.929 µM (active); in assay [16], 2 µM (inactive); in assay [17], 0.755 µM (active); in assay [18] it was 3.98 µM (inactive). The GI50 in assay [19] is 1.04 µM (active); in assay [20], 2.39 µM (inactive).
